Measured values reported in US20120129843A1, “PYRIDYL-THIAZOLYL INHIBITORS OF PRO-MATRIX METALLOPROTEINASE ACTIVATION” (priority 2010, published 2012).
pIC50, pKd: −log10 of the molar value. Where a name gives a salt, the structure may show the parent alone.

Legend:
[1] = molecular target: T1, full-length proMMP9(1-707) (SEQ ID NO:1), activation by catalytic MMP3 (Homo sapiens, UniProt P14780, R574P); assay: proMMP9/MMP3 P126 Activation Assay; assay type: biochemical
T1 construct: made in house; host or cells: HEK293 (proMMP9, secreted); E. coli (MMP3)
Procedure: proMMP9/MMP3 P126 Activation Assay
The reaction volume was 50 μL. […] Reactivity of residual MMP3 towards P-126 substrate was minimal under these conditions.

[2] = molecular target: T2, proMMP13(1-268) (SEQ ID NO:7) (Homo sapiens, UniProt P45452); assay: ThermoFluor binding assay with proMMP13(1-268)
T2 construct: 6xHis (C); made in house; host or cells: HEK293 (transient, secreted)
Procedure: The ThermoFluor® (TF) assay is a 384-well plate-based binding assay that measures thermal stability of proteins (Biomol Screen 2001, 6, 429-40; Biochemistry 2005, 44, 5258-66). The experiments were carried out using instruments available from Johnson & Johnson Pharmaceutical Research & Development, LLC. TF dye used in all experiments was […] (1,8-ANS) (Invitrogen: A-47).
Compounds were arranged in a pre-dispensed plate (Greiner Bio-one: 781280), wherein compounds were serially diluted in 100% DMSO across 11 columns within a series. Columns 12 and 24 were used as DMSO reference and contained no compound. For multiple compound concentration-response experiments, the compound aliquots ([…]) were robotically predispensed directly into black 384-well polypropylene PCR microplates (Abgene: TF-0384/k) using a Cartesian Hummingbird liquid handler (DigiLab, Holliston, Mass.). Following compound dispense, protein and dye solutions were added to achieve the final assay volume of 3 μL. The assay solutions were overlayed with 1 μL of silicone oil (Fluka, type DC 200: 85411) to prevent evaporation.
Assay plates were robotically loaded onto a thermostatically controlled PCR-type thermal block and then heated from 40 to 90° C. at a ramp-rate of 1° C./min for all experiments. Fluorescence was measured by continuous illumination with UV light (Hamamatsu LC6) supplied via fiber optics and filtered through a band-pass filter (380-400 nm; >60D cutoff). Fluorescence emission of the entire 384-well plate was detected by measuring light intensity using a CCD camera (Sensys, Roper Scientific) filtered to detect 500±25 nm, resulting in simultaneous and independent readings of all 384 wells. A single image with 20-sec exposure time was collected at each temperature, and the sum of the pixel intensity in a given area of the assay plate was recorded vs temperature and fit to standard equations to yield the Tm (J Biomol Screen 2001, 6, 429-40).
Thermodynamic parameters necessary for fitting compound binding for each proMMP were estimated by differential scanning calorimetry (DSC) and from ThermoFluor® data. The heat capacity of unfolding for each protein was estimated from the molecular weight and from ThermoFluor® dosing data.
ThermoFluor® with proMMP13(1-268) (SEQ ID NO: 7)
The proMMP13(1-268) (SEQ ID NO:7) protein sample preparations included a desalting buffer exchange step via a PD-10 gravity column (GE Healthcare). The desalting buffer exchange was performed prior to diluting the protein to the final assay concentration of 3.5 μM. The concentration of proMMP13(1-268) (SEQ ID NO:7) was estimated spectrophotometrically based on a calculated extinction coefficient of ε280=37000 M^−1cm^−1, a calculated molecular weight of 30.8 kDa, and calculated pI of 5.33. ThermoFluor® reference conditions were defined as follows: 100 μg/mL proMMP13(1-268) (SEQ ID NO:7), 25 μM 1,8-ANS, pH 7.0 Buffer (50 mM HEPES pH 7.0, 100 mM NaCl, 0.001% Tween-20, 2.5 mM MgCl2, 300 μM CaCl2). The thermodynamic parameters for proMMP13(1-268) (SEQ ID NO:7) are as follows: Tm (° C.)=67 (+/−0.1), ΔUH(Tm) (cal mol^−1)=107000(+/−5000), ΔUS(Tm) (cal mol^−1 K^−1)=318, ΔUCp (cal mol^−1 K^−1)=2600.

[3] = molecular target: T3, proMMP9(67-444;ΔFnII) (SEQ ID NO:5) (Homo sapiens, UniProt P14780, DEL216-390); assay: ThermoFluor binding assay with proMMP9(67-444;ΔFnII)
T3 construct: start methionine (N); made in house; host or cells: E. coli BL21(DE3) RIL
T3 sequence (P14780 with tags, fused parts or gaps DEL216-390): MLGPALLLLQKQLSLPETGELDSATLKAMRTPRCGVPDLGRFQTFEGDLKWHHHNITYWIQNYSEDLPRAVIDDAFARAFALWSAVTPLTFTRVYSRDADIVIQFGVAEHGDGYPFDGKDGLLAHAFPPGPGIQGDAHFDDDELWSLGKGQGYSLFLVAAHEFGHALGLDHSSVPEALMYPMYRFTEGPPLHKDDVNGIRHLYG
In short: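 Thermal shift with 3.5 μM desalted proMMP9(67-444;ΔFnII) and 50 μM 1,8-ANS in 50 mM HEPES pH 7.0, 100 mM NaCl, 0.001% Tween-20, 2.5 mM MgCl2, 300 μM CaCl2; compounds serially diluted. Heated 40–90 °C at 1 °C/min, fluorescence at 500 nm; Tm fit, binding modelled using DSC-derived thermodynamic parameters.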

[4] = molecular target: T4, proMMP9(20-445;ΔFnII) (SEQ ID NO:6) (Homo sapiens, UniProt P14780, DEL216-390); assay: ThermoFluor binding assay with proMMP9(20-445;ΔFnII)
T4 construct: start methionine (N); made in house; host or cells: E. coli BL21(DE3) RIL
T4 sequence (P14780 with tags, fused parts or gaps DEL216-390): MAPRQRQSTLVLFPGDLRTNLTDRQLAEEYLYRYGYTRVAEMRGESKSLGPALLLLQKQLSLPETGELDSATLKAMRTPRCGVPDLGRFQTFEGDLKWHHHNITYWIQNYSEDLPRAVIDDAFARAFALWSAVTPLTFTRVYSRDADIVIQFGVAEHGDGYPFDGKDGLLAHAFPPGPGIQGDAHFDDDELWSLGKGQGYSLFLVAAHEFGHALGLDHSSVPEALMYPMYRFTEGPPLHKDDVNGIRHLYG
In short: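 Thermal-shift binding using 2.8 μM proMMP9(20-445;ΔFnII) with 50 μM 1,8-ANS in 50 mM HEPES pH 7.0, 100 mM NaCl, 0.001% Tween-20, 2.5 mM MgCl2, 300 μM CaCl2. Compound serially diluted; heated 40–90 °C at 1 °C/min, fluorescence 500 nm. Tm shifts fitted using DSC/ThermoFluor-derived thermodynamic parameters.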

T1 sequence (P14780 20-707 R574P): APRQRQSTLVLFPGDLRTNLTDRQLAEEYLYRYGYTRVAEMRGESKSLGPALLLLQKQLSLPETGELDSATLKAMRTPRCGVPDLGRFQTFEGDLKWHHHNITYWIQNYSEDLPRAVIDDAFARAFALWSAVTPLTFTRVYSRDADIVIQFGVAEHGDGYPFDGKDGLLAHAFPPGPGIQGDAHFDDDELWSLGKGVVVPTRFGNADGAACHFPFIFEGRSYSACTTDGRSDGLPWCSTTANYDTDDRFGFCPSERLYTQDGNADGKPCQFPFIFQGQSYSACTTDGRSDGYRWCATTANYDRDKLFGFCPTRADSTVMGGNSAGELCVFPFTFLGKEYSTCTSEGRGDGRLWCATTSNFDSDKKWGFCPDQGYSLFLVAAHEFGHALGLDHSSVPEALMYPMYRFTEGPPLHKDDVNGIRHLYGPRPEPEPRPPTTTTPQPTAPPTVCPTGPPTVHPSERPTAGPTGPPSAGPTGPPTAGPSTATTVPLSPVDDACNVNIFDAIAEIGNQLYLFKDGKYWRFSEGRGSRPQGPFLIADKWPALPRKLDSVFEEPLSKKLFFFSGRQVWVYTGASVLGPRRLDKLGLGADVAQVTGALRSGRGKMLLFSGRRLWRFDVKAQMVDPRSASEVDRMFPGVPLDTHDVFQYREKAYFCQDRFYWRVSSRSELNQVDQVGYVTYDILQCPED

SMILES | pIC50 [1] | pKd [2] | pKd [3] | pKd [4]
COc1ccc(C#N)cc1Nc1nc(-c2cccnc2)cs1 [Example 9, 4-Methoxy-3-(4-pyridin-3-yl-thiazol-2-ylamino)-benzonitrile.HBr] | 5.59 | 4.74 | 4.37 | 5.13
COc1ccc(CC(N)=O)cc1Nc1nc(-c2cccnc2)cs1 [Example 5, 2-[4-Methoxy-3-(4-pyridin-3-yl-thiazol-2-ylamino)-phenyl]-acetamide] | ~4.72 | < 4.02 | 4.48 | 4.28
Cc1cc2cccc(Nc3nc(-c4cccnc4)cs3)c2o1 [Example 3, (2-Methyl-benzofuran-7-yl)-(4-pyridin-3-yl-thiazol-2-yl)-amine] | ~5.30 | < 4.02 | 4.42 | 4.48
CC(C)Oc1ccc(C(N)=O)cc1Nc1nc(-c2ccc(Br)nc2)cs1 [Example 20, 4-Isopropoxy-3-[4-(6-bromo-pyridin-3-yl)-thiazol-2-ylamino]-benzamide.TFA] | 6.19 | 6.64 | 5.48 | 6.47
CC(C)Oc1ccc(C(=O)O)cc1Nc1nc(-c2cccnc2)cs1 [Example 17, 4-Isopropoxy-3-(4-pyridin-3-yl-thiazol-2-ylamino)-benzoic acid.TFA] | 5.37 | 5.82 | 5.24 | 5.44
CCOc1ccc(C(N)=O)cc1Nc1nc(-c2cccnc2)cs1 [Example 2, 4-Ethoxy-3-(4-pyridin-3-yl-thiazol-2-ylamino)-benzamide.TFA] | 6.13 | 5.59 | 5.82 | 6.14
Cc1nc(C(F)(F)F)ccc1-c1csc(Nc2cc(C(N)=O)ccc2OC(C)C)n1 [Example 24, 4-Isopropoxy-3-[4-(2-methyl-6-trifluoromethyl-pyridin-3-yl)-thiazol-2-ylamino]-benzamide.TFA] | ~5.52 | 5.43 | < 4.02 | 5.66
CC(C)Oc1ccc(C(N)=O)cc1Nc1nc(-c2cccnc2)cs1 [Example 1, 4-Isopropoxy-3-(4-pyridin-3-yl-thiazol-2-ylamino)-benzamide.HBr] | 6.44 | 6.51 | 6.00 | 6.80
COc1ccc(C(N)=O)cc1Nc1nc(-c2cccnc2)cs1 [Example 4, 4-Methoxy-3-(4-pyridin-3-yl-thiazol-2-ylamino)-benzamide.HBr] | 5.30 | 4.92 | 5.48 | 5.89
CC(C)Oc1ccc(C(N)=O)cc1Nc1nc(-c2ccc(Cl)nc2)cs1 [Example 26, 3-[4-(6-Chloro-pyridin-3-yl)-thiazol-2-ylamino]-4-isopropoxy-benzamide.TFA] | 6.17 | 6.60 | 5.48 | 6.49
CC(C)Oc1ccc(C(N)=O)cc1Nc1nc(-c2ccccn2)cs1 [Example 14, 4-Isopropoxy-3-(4-pyridin-2-yl-thiazol-2-ylamino)-benzamide] | 6.30 | 6.03 | 5.72 | 6.68
NS(=O)(=O)c1ccc(OC(F)(F)F)c(Nc2nc(-c3cccnc3)cs2)c1 [Example 59, 3-(4-Pyridin-3-yl-thiazol-2-ylamino)-4-trifluoromethoxy-benzenesulfonamide] | < 4.70 | < 4.02 |  | 4.44
CC(C)Oc1ccc(S(N)(=O)=O)cc1Nc1nc(-c2cccnc2)cs1 [Example 13, 4-Isopropoxy-3-(4-pyridin-3-yl-thiazol-2-ylamino)-benzenesulfonamide.TFA] | 5.62 | 5.92 | 5.00 | 5.64
CCOc1ccc(-c2ncco2)cc1Nc1nc(-c2cccnc2)cs1 [Example 18, (2-Ethoxy-5-oxazol-2-yl-phenyl)-(4-pyridin-3-yl-thiazol-2-yl)-amine.HBr] | 6.17 | 5.48 | 6.18 | 4.59
COc1ccc(-c2csc(Nc3cc(C(N)=O)ccc3OC(C)C)n2)cn1 [Example 25, 4-Isopropoxy-3-[4-(6-methoxy-pyridin-3-yl)-thiazol-2-ylamino]-benzamide.TFA] | 6.34 | 5.74 | 5.70 | 6.77
CC(C)Oc1ccc(C(N)=O)cc1Nc1nc(-c2ccncc2)cs1 [Example 15, 4-Isopropoxy-3-(4-pyridin-4-yl-thiazol-2-ylamino)-benzamide.HBr] | 6.55 | 6.14 | 6.33 | 6.60
Cc1cc(C)c(-c2csc(Nc3cc(C(N)=O)ccc3OC(C)C)n2)c(C)n1 [Example 19, 4-Isopropoxy-3-[4-(2,4,6-trimethyl-pyridin-3-yl)-thiazol-2-ylamino]-benzamide.TFA] | ~5.40 | 5.21 | 4.85 | 4.57
CC(C)Oc1ccc(C(N)=O)cc1Nc1nc(-c2cncc(Br)c2)cs1 [Example 22, 3-[4-(5-Bromo-pyridin-3-yl)-thiazol-2-ylamino]-4-isopropoxy-benzamide.TFA] | 5.34 | 5.54 | 5.24 | 5.89
CC(C)Oc1ccc(C(N)=O)cc1Nc1nc(-c2cnccc2C(C)C)cs1 [Example 23, 4-Isopropoxy-3-[4-(4-isopropyl-pyridin-3-yl)-thiazol-2-ylamino]-benzamide.TFA] | ~4.85 | 4.92 | 4.74 | 4.96
CC(C)Oc1ccc(S(N)(=O)=O)cc1Nc1nc(-c2ccc(N3CCNCC3)nc2)cs1 [Example 44, 4-Isopropoxy-3-[4-(6-piperazin-1-yl-pyridin-3-yl)-thiazol-2-ylamino]-benzenesulfonamide.TFA] | 7.14 |  | 6.89 | 7.32
